The values below come from patent US20240122867A1, “CORONAL PROTEIN-COATED NANOPARTICLES AND USES THEREOF” (UNIVERSITY OF CENTRAL FLORIDA RESEARCH FOUNDATION, INC., priority 2021, published 2024).

In general, IC50 refers to the concentration needed to halve the response being measured.

In the data set the test system is MDA-MB-231 cells. Briefly: cells. The format is cell-based, human.

`CC(=O)O[C@H]1C(=O)[C@@]2(C)[C@H]([C@H](OC(=O)c3ccccc3)[C@]3(O)C[C@H](OC(=O)[C@H](O)[C@@H](NC(=O)c4ccccc4)c4ccccc4)C(C)=C1C3(C)C)[C@]1(OC(C)=O)CO[C@@H]1C[C@@H]2O` [taxol, paclitaxel]: the IC50 (Homo sapiens, MDA-MB-231, read-out: IC50 dose) is roughly 50 nM. Further, the “reduction of MDA-MB-231 viability” value (free taxol, 43 μg dose, 24 h) was roughly 50%.
